The record followed here is PubChem BioAssay AID623909 (Vanderbilt High Throughput Screening Facility, 2012).

SMILES strings stand for the structures. Activity calls are given as the source filed them. How the calls were made is not given here.

In this experiment the target is G protein-activated inward rectifier potassium channel 2 (Homo sapiens) + G protein-activated inward rectifier potassium channel 1 (Homo sapiens) (UniProt P48051+P48549). Kind of experiment: GIRK1/2 channel activators, dose response, cell-based, thallium flux, HEK-293 (AID 623909). The conditions noted are these: HEK-293 hGIRK1/2, thallium flux FluoZin-2 fluorescence; for activation, % of glutamate: at 90 µM (top of the series).
Chain of G protein-activated inward rectifier potassium channel 2 (Homo sapiens) + G protein-activated inward rectifier potassium channel 1 (Homo sapiens) (P48051 whole entry, looked up): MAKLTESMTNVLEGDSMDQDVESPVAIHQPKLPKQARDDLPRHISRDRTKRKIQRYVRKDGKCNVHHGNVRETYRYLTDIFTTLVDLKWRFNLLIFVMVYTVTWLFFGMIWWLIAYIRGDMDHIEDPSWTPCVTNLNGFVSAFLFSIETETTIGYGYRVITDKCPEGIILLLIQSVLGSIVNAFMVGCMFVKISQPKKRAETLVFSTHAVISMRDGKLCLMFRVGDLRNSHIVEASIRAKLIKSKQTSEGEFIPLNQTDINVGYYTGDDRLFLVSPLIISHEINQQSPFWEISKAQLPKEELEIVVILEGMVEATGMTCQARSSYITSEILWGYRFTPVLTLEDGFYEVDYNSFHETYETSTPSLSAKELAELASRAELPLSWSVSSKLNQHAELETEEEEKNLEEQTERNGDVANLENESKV
Chain of G protein-activated inward rectifier potassium channel 2 (Homo sapiens) + G protein-activated inward rectifier potassium channel 1 (Homo sapiens) (P48549 whole entry, looked up): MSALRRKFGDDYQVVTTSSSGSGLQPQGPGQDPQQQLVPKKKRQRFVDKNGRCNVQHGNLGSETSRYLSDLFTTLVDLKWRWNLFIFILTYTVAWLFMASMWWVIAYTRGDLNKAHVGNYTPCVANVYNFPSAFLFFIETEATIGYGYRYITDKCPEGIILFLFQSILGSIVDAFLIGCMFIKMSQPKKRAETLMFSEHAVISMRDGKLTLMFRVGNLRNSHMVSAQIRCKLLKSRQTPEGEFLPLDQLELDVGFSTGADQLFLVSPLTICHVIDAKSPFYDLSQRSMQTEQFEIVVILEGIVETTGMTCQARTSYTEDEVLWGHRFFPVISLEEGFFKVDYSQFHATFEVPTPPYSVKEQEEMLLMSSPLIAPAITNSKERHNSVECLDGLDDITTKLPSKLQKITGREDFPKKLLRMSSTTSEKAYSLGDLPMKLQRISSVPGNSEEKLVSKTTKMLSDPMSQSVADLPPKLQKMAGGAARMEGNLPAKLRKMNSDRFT

With `COc1cccc(NC(=O)Cn2cc(C#N)c3ccccc32)c1`, the concentration giving a half-maximal response (EC50) is 1.65 µM.
As to `COc1ccc(NC(=O)Nc2ccccc2C(=O)N2CCCC2)cc1`, the 50% effective concentration (EC50) was 30 µM.
Consider `CCOc1ccccc1Nc1nnc(Cc2ccccc2Cl)c(=O)[nH]1`, for which the 50% effective concentration (EC50) is 0.67 µM.
Still for that read-out and setting: next, `COc1ccc(C2CC(c3ccc(Cl)c(Cl)c3)Nc3nc(N)nn32)cc1` (configuration not stated): 2.41 µM.
Still for that read-out and setting: the value for `COc1ccc(NC(=O)Nc2cc(C)ccc2OC)cc1` was 2.05 µM.
On the same count and under the same terms, the value for `CCOc1ccc(OCCSc2nc3ccccc3[nH]2)cc1` was 1.67 µM; that for `COc1ccc(C)cc1NC(=O)NCCC1=CCCCC1` was 3.94 µM.
As for `O=C(Nc1cccc(Cl)c1)Nc1nccs1`, the concentration giving a half-maximal response (EC50) is 1.95 µM.
Still for that read-out and setting: next, `CCOC(=O)C1=C(CC)Nc2ccccc2N=C1NC(=O)Nc1ccc(Cl)c(Cl)c1`: 3.62 µM.
Same read-out and setting: the value for `Cc1cccc(NC(=O)NC(C)CCc2ccccc2)c1` (configuration not stated) was 30 µM; that for `CC(=O)c1sc(NC(=O)c2cc(-c3ccccc3)nn2-c2ccccc2)nc1C` was 0.884 µM.
Same read-out and setting: next, `COc1ccc(Br)cc1CNC(=O)Nc1cccs1`: 1.75 µM.
In the case of `COc1c(Cl)cc(Cl)cc1CNCCNCC(C)O` (configuration not stated), the 50% effective concentration (EC50) was 0.497 µM.
Still for that read-out and setting: next, `CC(Sc1nnnn1C)C(=O)Nc1ccc(Oc2ccccc2)cc1` (configuration not stated): 30 µM; `Fc1ccc(CSc2nc3ccccc3[nH]2)c2ccccc12`: 3.6 µM.
With `CCOc1ccc(NC(=O)Nc2cccs2)cc1`, the “activation, % of glutamate” value was “inactive”.
Turning to `O=C(/C=C/c1ccccc1)NC(NC(=S)Nc1cccc(Cl)c1)C(Cl)(Cl)Cl` (configuration not stated), the EC50 is 5.91 µM.
On the same count and under the same terms, the value for `O=C(Cc1ccccc1)N/N=C/c1cccn1-c1ccc([N+](=O)[O-])cc1` was 1.42 µM; that for `CSc1cccc(NC(=O)CN(c2ccccc2)S(=O)(=O)N(C)C)c1` was 30 µM; that for `CCOC(=O)c1ccc(NC(=O)Nc2ccc(OC)c(OC)c2)cc1` was 5.54 µM.
Same read-out and setting: next, `CSc1cccc(NC(=O)COc2ccccc2)c1`: 30 µM; `C=C(C)C1CC=C(C)/C(=N/NC(=O)COc2cccc(C)c2)C1` (configuration not stated): 8.94 µM.
The same measure, in the same setting: next, `Cc1cc(NC(=O)Nc2ccccc2)n(-c2ccccc2)n1`: 3.76 µM.
For `COc1cccc(NC(=O)Nc2cccs2)c1`, the EC50 is 7.33 µM.
For `COc1ccc(C)cc1NC(=O)Nc1ccccc1`, the concentration for a half-maximal effect (EC50) is 5.96 µM.
`CC(C)=CCC(C)(C)CNC(=O)NC1CCCCC1`: the EC50 is 30 µM.
On the same count and under the same terms, next, `Cc1ccc(Cl)cc1NC(=S)NCc1cccn1C`: 16.2 µM; `S=C(Nc1cccc(Cl)c1)Nc1ccccc1Oc1ccccc1`: 8.09 µM; `CSc1ccccc1NC(=O)Nc1ccccc1`: 12.8 µM.
As to `COc1cccc(NC(=O)CC2COc3ccccc3O2)c1` (configuration not stated), the EC50 was 30 µM.
On the same count and under the same terms, next, `CCSc1nnc(NC(=O)NC(CC)(C(F)(F)F)C(F)(F)F)s1`: 30 µM.
As for `O=C(Nc1ccc(F)c(F)c1)NC1CCCCC1`, the EC50 is 8.55 µM.
Still for that read-out and setting: next, `C/C(CC(=O)NCC(C)C)=N\NC(=O)COc1cc(C)c(Br)cc1Br`: 16.8 µM.
For `CN(C)S(=O)(=O)c1cccc(NC(=O)Cc2ccc(Cl)cc2)c1`, the half-maximal effective concentration (EC50) was 9.88 µM.
On the same count and under the same terms, the value for `COc1ccc(C(=O)NC(=S)NC(C)C)cc1Br` was 2.25 µM; that for `CN(C)S(=O)(=O)N(CC(=O)Nc1ccc2ccccc2c1)c1ccccc1` was 7.2 µM; that for `CCOC(=O)Cc1csc(NC(=O)Nc2ccccc2)n1` was 7.34 µM.
Still for that read-out and setting: next, `COc1ccccc1Nc1ccc(Nc2ccccc2OC)nn1`: 3.41 µM; `O=C(Nc1ccccc1)Nc1nccs1`: 30 µM.
The same measure, in the same setting: next, `CCCn1c(C)cc(/C=C(\C#N)C(=O)OCC(=O)Nc2cccc(OC)c2)c1C`: 30 µM; `COc1ccc(Nc2nnc(Cc3ccccc3)c(=O)[nH]2)c(OC)c1`: 30 µM; `NC(=O)SCC(=O)Nc1ccc(Cl)cc1`: 4.2 µM.
`Cc1ccc(-c2nnn(CC(=O)NC3CC4CCC3C4)n2)cc1` (configuration not stated): the EC50 is 0.317 µM.
Still for that read-out and setting: the value for `Cc1ccc(NC(=O)COC(=O)/C=C/c2ccco2)cc1S(=O)(=O)N(C)C` was 30 µM; that for `O=C(Nc1ccc(Cl)cc1)NC1CCCCC1Cc1ccco1` (configuration not stated) was 4.14 µM.
The same measure, in the same setting: next, `Cc1nn(CC(=O)Nc2ccc(Cl)c(S(=O)(=O)N(C)C)c2)c(C)c1[N+](=O)[O-]`: 30 µM; `Cc1ccccc1OCC(=O)N/N=C/c1cccn1C`: 30 µM.
Still for that read-out and setting: the value for `CC1CC(C)CN(C(=S)Nc2ccc(SC(F)F)cc2)C1` (configuration not stated) was 10.6 µM; that for `CC1CCCN(Cc2cccc(Oc3ccccc3)c2)C1` (configuration not stated) was 30 µM.
Take `CSc1ccccc1NC(=O)Nc1ccc(Cl)cc1`: the “activation, % of glutamate” value is “inactive”.
As for `CCOc1ccc(NC(=O)NC23CC4CC(CC(C4)C2)C3)cc1`, the EC50 was 1.48 µM.
Same read-out and setting: next, `CCc1ccc(CNCCNCC(C)O)cc1` (configuration not stated): 2.36 µM.
Still for that read-out and setting: next, `Cc1ccc(NC(=O)CN2c3cccc4cccc(c34)S2(=O)=O)cc1S(=O)(=O)N1CCOCC1`: 2.23 µM; `CC(/C=N/NC(=O)c1c(Br)cnn1C)=C\c1ccccc1`: 3.54 µM; `CCCSc1nnc(Nc2ccccc2C)s1`: 30 µM.
Consider `Cc1ccc(CC(=O)N2CCN(c3cccc(C(F)(F)F)c3)CC2)cc1`, for which the EC50 was 5.18 µM.
Still for that read-out and setting: next, `COC(=O)[C@H](Cc1ccccc1)NC(=O)NCCC1=CCCCC1`: 30 µM; `Cc1ccc(NC(=O)Cc2ccccc2Cl)cc1S(=O)(=O)N(C)C`: 2.62 µM.
Same read-out and setting: next, `Cc1ccc(NC(=O)COC(=O)CCC(=O)c2ccc(Cl)cc2)cc1S(=O)(=O)N(C)C`: 30 µM.
On the same count and under the same terms, the value for `CCOC(=O)C(Cc1ccccc1)NC(=O)Cn1nnc(-c2ccccc2)n1` (configuration not stated) was 30 µM; that for `O=C(NNC(=O)c1cccs1)Nc1cccc(Cl)c1` was 11.2 µM; that for `CCCCc1ccc(NC(=S)Nc2ccc(Cl)c(S(=O)(=O)N(C)C)c2)cc1` was 4 µM.
As to `CCCN(CC1CC1)C(=S)Nc1ccc(Oc2ccccc2)cc1`, the 50% effective concentration (EC50) is 3.54 µM.
Regarding `O=C(Nc1ccc(Cl)cc1)Nc1nccs1`, the EC50 was 3.65 µM.
The same measure, in the same setting: next, `Cc1cc(C)n(-c2ccc(C(=O)OCC(=O)Nc3ccc(Cl)c(S(=O)(=O)N(C)C)c3)cc2)n1`: 8.94 µM; `CCCCc1ccc(NC(=S)Nc2cccnc2)cc1`: 8.96 µM.
`CCOCc1c(C(=O)OCC(=O)Nc2ccc(C)c(S(=O)(=O)N(C)C)c2)oc2ccccc12`: the 50% effective concentration (EC50) is 30 µM.

As a reminder, the EC50 is the midpoint of the concentration-response curve.
